Measured values published in US9781938B2, “Method for eliciting plant immune responses by seed priming of heat-treated Bacillus culture solution” (KOREA RESEARCH INSTITUTE OF BIOSCIENCE AND BIOTECHNOLOGY, priority 2012, dated 2017).

Legend:
Assay type in all cases: in vivo
cucumber = experiment: Establishment of seed priming conditions using BTH: stem weight to see growth inhibition
Method: (§1) Regarding the priming of a cucumber seed, to establish conditions for seed treatment at which induced systemic resistance against is induced in a plant without inhibiting plant growth, a cucumber seed was treated with BTH (benzothiadiazole), i.e., a potent substance for eliciting resistance, and it was cultivated in a rectangular culture solution dish (125×125 mm) and a pot for determination. The cucumber seed (Bakbong Dadagi, manufactured by Nongwoo Bio, Korea) was subjected to surface sterilization for 5 minutes using 5% NaOCl and, after rinsing 5 times with sterilized water, died on a filter paper. The sterilized seed was soaked for 0, 6, 12, or 18 hours in BTH solution each at 0.1 μM, 10 μM, or 1 mM. 0 Hour means that the seed was dried immediately after soaking. The soaked seed was dried for 12 hours on a culture dish overlaid with a sterilized filter paper. The seed after priming was sown in a pot filled with soil for horticulture (Punong Co., Ltd., Korea) and also in a rectangular culture dish containing distilled water-agar medium (Water agar; WA, plant agar (8 g/L)). […] Seven days later, any symptom of disease was determined, and the degree of symptom was measured with scale of from 1 to 5. […] Stem weight was measured simultaneously with determination of the degree of symptom to see if there is any growth inhibition.

LOX gene = experiment: qRT-PCR expression of plant disease resistance-related gene LOX in cucumber leaf after pathogen inoculation; conditions: BTH treatment group; time not stated
Method: (§2) In order to measure an expression amount of a plant disease resistance-related gene, pathogen was inoculated to a cucumber, and sampling was made 0, 3 or 24 hours later. Total RNA was isolated from the sampled cucumber leaf by using RNeasy Plus Mini Kit (50). cDNA was synthesized from 2 μg of the RNA by using an oligo-dT primer and MMLV-RT (Moloney murine leukemia virus reverse transcriptase, Enzynomics, KOREA). cDNA was then used for qRT-PCR (quantitative Reverse Transcriptase Polymerase Chain Reaction) based on Chromo4 Real Time PCR system (BIO-RAD) by using each primer for the genes of LOX, PR2 and ETR that are known to be related to resistance to diseases. LOX primer is as follows; forward direction: 5′-[…]-3′ (SEQ ID NO: 1) and reverse direction: 5′-[…]-3′ (SEQ ID NO: 2), PR2 primer is as follows; forward direction: 5′-[…]-3′ (SEQ ID NO: 3) and reverse direction: 5′-[…]-3′ (SEQ ID NO: 4), and ETR primer is as follows; forward direction: 5′-[…]-3′ (SEQ ID NO: 5) and reverse direction: 5′-GCCAAAGACCACTGCCACA-3′ (SEQ ID NO: 6).

PR2 gene = experiment: qRT-PCR expression of plant disease resistance-related gene PR2 in cucumber leaf after pathogen inoculation; conditions: after 24 hours
Method: as §2

[1] = tested on: Psuedomonas syringae pv. lachrymans; experiment: Establishment of seed priming conditions using BTH: induced systemic resistance in cucumber (culture dish and pot), degree of symptom; conditions: cucumber seed soaked in 1 mM BTH for 12 hours and 18 hours; in vitro and in planta
Method: as §1

## CSC(=O)c1cccc2nnsc12 [BTH, benzo(1,2,3)-thiadiazole-7-carbothioic acid S-methyl ester]
cucumber; seed soaked in 1 mM BTH for 12 hours
  growth inhibition (stem weight): no growth inhibition
cucumber; seed treated with 1 mM BTH for 18 hours, compared to sterilized water control
  growth inhibition (stem weight): growth inhibition is shown with a statistic significance
LOX gene
  expression level of LOX gene versus negative control: close to that of a negative control
PR2 gene
  PR2 expression level: 1.7
PR2 gene; vs negative control water
  PR2 expression level relative to water (0.4): 4.3 times
[1]
  eliciting induced systemic resistance: most effective
